# Numbering of substitutions follows the chain as printed. Where a SMILES comes first, the peptide text is derived from it. Bridges are numbered along the chain shown (N, C = ends).
# How the values were obtained:
# Test in all cases: cAMP accumulation
# Type in all cases: cell-based
# Settings in all cases: mean ± S.E.M.; for Emax: cAMP maximal response, SEM; for EC50: cAMP, CV1-FlpIn cells, 30 min, IBMX
# [1] = target: T1, hCTR F356A (Homo sapiens, UniProt P30988, F356A)
# T1 construct: c-Myc (N); expressed in transfected cells
# T1 sequence (P30988 25-474 F356A): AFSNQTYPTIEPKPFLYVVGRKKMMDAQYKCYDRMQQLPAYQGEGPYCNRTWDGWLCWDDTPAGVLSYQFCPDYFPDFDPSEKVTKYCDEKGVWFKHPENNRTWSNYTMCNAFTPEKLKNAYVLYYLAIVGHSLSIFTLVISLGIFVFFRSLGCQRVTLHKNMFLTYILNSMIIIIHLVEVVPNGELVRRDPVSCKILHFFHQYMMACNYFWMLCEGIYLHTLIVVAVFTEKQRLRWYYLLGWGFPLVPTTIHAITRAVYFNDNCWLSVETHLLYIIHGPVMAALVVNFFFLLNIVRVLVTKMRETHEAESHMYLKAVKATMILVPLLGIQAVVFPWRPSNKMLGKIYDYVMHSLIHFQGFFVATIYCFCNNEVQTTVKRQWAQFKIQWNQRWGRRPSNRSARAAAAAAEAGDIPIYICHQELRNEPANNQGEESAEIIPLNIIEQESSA
# Procedure, shortened: (§1)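 Cells expressing the receptor mutant were seeded overnight, then stimulated with increasing ligand concentrations for 30 min in the presence of IBMX. After ethanol extraction and drying at room temperature, cAMP was measured and normalized to the 100 μM forskolin response. EC50 and Emax came from 3-parameter logistic fits.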
# [2] = target: T2, hCTR F359A (Homo sapiens, UniProt P30988, F359A)
# T2 construct: expressed in transfected cells
# T2 sequence (P30988 25-474 F359A): T1 sequence (P30988 25-474 F356A) with A332F, F335A
# Procedure, shortened: as §1
# [3] = target: T3, hCTR L297A (Homo sapiens, UniProt P30988, L297A)
# T3 construct: c-Myc (N); expressed in transfected cells
# T3 sequence (P30988 25-474 L297A): T1 sequence (P30988 25-474 F356A) with L273A, A332F
# Procedure, shortened: as §1
# [4] = target: T4, hCTR M376A (Homo sapiens, UniProt P30988, M376A)
# T4 construct: c-Myc (N); expressed in transfected cells
# T4 sequence (P30988 25-474 M376A): T1 sequence (P30988 25-474 F356A) with A332F, M352A
# Procedure, shortened: as §1
# [5] = target: T5, hCTR V357A (Homo sapiens, UniProt P30988, V357A)
# T5 construct: c-Myc (N); expressed in transfected cells
# T5 sequence (P30988 25-474 V357A): T1 sequence (P30988 25-474 F356A) with A332F, V333A
# Procedure, shortened: as §1
Compound,Emax [1],Emax [2],Emax [3],Emax [4],Emax [5],EC50 [1],EC50 [2],EC50 [3],EC50 [4],EC50 [5]
CC(C)C[C@H](NC(=O)[C@H](CCCCN)NC(=O)CNC(=O)[C@H](CC(C)C)NC(=O)[C@@H](NC(=O)[C@@H]1CSSC[C@H](N)C(=O)N[C@@H](CO)C(=O)N[C@@H](CC(N)=O)C(=O)N[C@@H](CC(C)C)C(=O)N[C@@H](CO)C(=O)N[C@@H]([C@@H](C)O)C(=O)N1)C(C)C)C(=O)N[C@@H](CO)C(=O)N[C@@H](CCC(N)=O)C(=O)N[C@@H](CCC(=O)O)C(=O)N[C@@H](CC(C)C)C(=O)N[C@@H](Cc1c[nH]cn1)C(=O)N[C@@H](CCCCN)C(=O)N[C@@H](CC(C)C)C(=O)N[C@@H](CCC(N)=O)C(=O)N[C@H](C(=O)N[C@@H](Cc1ccc(O)cc1)C(=O)N1CCC[C@H]1C(=O)N[C@@H](CCCNC(=N)N)C(=O)N[C@H](C(=O)N[C@@H](CC(N)=O)C(=O)N[C@H](C(=O)NCC(=O)N[C@@H](CO)C(=O)NCC(=O)N[C@H](C(=O)N1CCC[C@H]1C(N)=O)[C@@H](C)O)[C@@H](C)O)[C@@H](C)O)[C@@H](C)O [sCT],100 ± 1%,84 ± 4%,103 ± 12%,102 ± 6%,133 ± 12%,–,–,–,–,–
CC(C)C[C@H](NC(=O)[C@H](CC(N)=O)NC(=O)[C@H](CC(N)=O)NC(=O)[C@H](CO)NC(=O)[C@H](CO)NC(=O)[C@H](CCCNC(=N)N)NC(=O)[C@@H](NC(=O)[C@H](CC(C)C)NC(=O)[C@H](Cc1ccccc1)NC(=O)[C@H](CC(N)=O)NC(=O)[C@H](C)NC(=O)[C@H](CC(C)C)NC(=O)[C@H](CCCNC(=N)N)NC(=O)[C@H](CCC(N)=O)NC(=O)[C@@H](NC(=O)[C@H](C)NC(=O)[C@@H]1CSSC[C@H](NC(=O)[C@@H](N)CCCCN)C(=O)N[C@@H](CC(N)=O)C(=O)N[C@@H]([C@@H](C)O)C(=O)N[C@@H](C)C(=O)N[C@@H]([C@@H](C)O)C(=O)N1)[C@@H](C)O)C(C)C)C(=O)NCC(=O)N1CCC[C@H]1C(=O)N[C@H](C(=O)N[C@@H](CC(C)C)C(=O)N1CCC[C@H]1C(=O)N1CCC[C@H]1C(=O)N[C@H](C(=O)N[C@@H](CC(N)=O)C(=O)N[C@H](C(=O)NCC(=O)N[C@@H](CO)C(=O)N[C@@H](CC(N)=O)C(=O)N[C@H](C(=O)N[C@@H](Cc1ccc(O)cc1)C(N)=O)[C@@H](C)O)C(C)C)[C@@H](C)O)C(C)C [rAmy],126 ± 15%,95 ± 9%,85 ± 10%,85 ± 13%,88 ± 10%,–,–,–,–,–
CC[C@H](C)[C@H](NC(=O)[C@H](C)NC(=O)[C@@H](NC(=O)[C@H](CCC(N)=O)NC(=O)[C@@H]1CCCN1C(=O)[C@H](Cc1ccccc1)NC(=O)[C@@H](NC(=O)[C@H](Cc1c[nH]cn1)NC(=O)[C@H](Cc1ccccc1)NC(=O)[C@H](CCCCN)NC(=O)[C@H](CC(N)=O)NC(=O)[C@H](Cc1ccccc1)NC(=O)[C@H](CC(=O)O)NC(=O)[C@H](CCC(N)=O)NC(=O)[C@@H](NC(=O)[C@H](Cc1ccc(O)cc1)NC(=O)[C@@H](NC(=O)CNC(=O)[C@H](CC(C)C)NC(=O)[C@H](CCSC)NC(=O)[C@@H]1CSSC[C@H](N)C(=O)NCC(=O)N[C@@H](CC(N)=O)C(=O)N[C@@H](CC(C)C)C(=O)N[C@@H](CO)C(=O)N[C@@H]([C@@H](C)O)C(=O)N1)[C@@H](C)O)[C@@H](C)O)[C@@H](C)O)[C@@H](C)O)C(=O)NCC(=O)N[C@H](C(=O)NCC(=O)N[C@@H](C)C(=O)N1CCC[C@H]1C(N)=O)C(C)C [hCT],131 ± 8%,130 ± 9%,91 ± 6%,84.3 ± 10%,137 ± 6%,–,–,–,–,–
CC(C)C[C@H](NC(=O)CNC(=O)[C@H](C)NC(=O)[C@H](CC(C)C)NC(=O)[C@H](CCCNC(=N)N)NC(=O)[C@H](Cc1cnc[nH]1)NC(=O)[C@@H](NC(=O)[C@@H](NC(=O)[C@@H]1CSSC[C@H](NC(=O)[C@H](C)N)C(=O)N[C@@H](CC(=O)O)C(=O)N[C@@H]([C@@H](C)O)C(=O)N[C@@H](C)C(=O)N[C@@H]([C@@H](C)O)C(=O)N1)C(C)C)[C@@H](C)O)C(=O)N[C@@H](CC(C)C)C(=O)N[C@@H](CO)C(=O)N[C@@H](CCCNC(=N)N)C(=O)N[C@@H](CO)C(=O)NCC(=O)NCC(=O)N[C@H](C(=O)N[C@H](C(=O)N[C@@H](CCCCN)C(=O)N[C@@H](CC(N)=O)C(=O)N[C@@H](CC(N)=O)C(=O)N[C@@H](Cc1ccccc1)C(=O)N[C@H](C(=O)N1CCC[C@H]1C(=O)N[C@H](C(=O)N[C@@H](CC(N)=O)C(=O)N[C@H](C(=O)NCC(=O)N[C@@H](CO)C(=O)N[C@@H](CCCCN)C(=O)N[C@@H](C)C(=O)N[C@@H](Cc1ccccc1)C(N)=O)C(C)C)[C@@H](C)O)C(C)C)C(C)C)C(C)C [hαCGRP],128 ± 10%,53 ± 8%,88 ± 14%,47 ± 7%,82 ± 10%,66.1 nM,18.6 nM,36.3 nM,141 nM,29.5 nM
CSCC[C@H](NC(=O)CNC(=O)[C@H](CO)NC(=O)[C@H](Cc1ccccc1)NC(=O)[C@H](CCCNC(=N)N)NC(=O)[C@H](Cc1c[nH]cn1)NC(=O)[C@H](Cc1ccccc1)NC(=O)[C@H](CC(N)=O)NC(=O)[C@H](CC(N)=O)NC(=O)[C@H](CC(C)C)NC(=O)[C@H](CC(N)=O)NC(=O)[C@H](CCCNC(=N)N)NC(=O)[C@H](Cc1c[nH]c2ccccc12)NC(=O)[C@H](Cc1ccc(O)cc1)NC(=O)[C@H](C)NC(=O)[C@H](CO)NC(=O)[C@H](CC(C)C)NC(=O)[C@@H](NC(=O)[C@@H]1CSSC[C@H](N)C(=O)N[C@@H](CO)C(=O)N[C@@H](CC(N)=O)C(=O)N[C@@H](CC(C)C)C(=O)N[C@@H](CO)C(=O)N[C@@H]([C@@H](C)O)C(=O)N1)C(C)C)C(=O)NCC(=O)N[C@@H](Cc1ccccc1)C(=O)NCC(=O)N1CCC[C@H]1C(=O)N[C@@H](CCC(=O)O)C(=O)N[C@H](C(=O)N1CCC[C@H]1C(N)=O)[C@@H](C)O [pCT] (H-CSNLSTCVLSAYWRNLNNFHRFSGMGFGPETP-NH2; disulfide 1-7),100 ± 2%,113 ± 8%,127 ± 8%,87 ± 11%,154 ± 17%,0.0316 nM,0.162 nM,0.1 ± 0.002 nM,0.234 nM,0.151 nM

# — PMC5908784, “Extracellular loops 2 and 3 of the calcitonin receptor selectively modify agonist binding and efficacy” (Biochemical Pharmacology, 2018)
